In the supplement of paper PMC10307832:

Legend:
Test in all cases: relative viability (nuclei count vs DMSO), 5 days (fraction); higher = more cells survive
[1] = compound: CN[C@@H]1C[C@H]2O[C@@](C)([C@@H]1OC)n1c3ccccc3c3c4c(c5c6ccccc6n2c5c31)C(=O)NC4 [Staurosporine] + Cc1cc(Nc2cc(N3CCN(C)CC3)nc(Sc3ccc(NC(=O)C4CC4)cc3)n2)n[nH]1 [Tozasertib] (partner 0.1 µM)
In short: (§1)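 Relative viability was taken as the ratio of nuclei in treated wells to nuclei in vehicle wells. Lung cancer cell lines in 1536-well plates received compounds by pin tool one day after seeding, either one drug alone or a fixed anchor-drug dose plus five library-drug doses (not always all listed) in √10 steps. Nuclei were counted on 4× images after 5 days of treatment, and values are medians of duplicate plates.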

[2] = compound: O=c1[nH]cc(F)c(=O)[nH]1 [5-Fluorouracil] + CC(=O)c1c(C)c2cnc(Nc3ccc(N4CCNCC4)cn3)nc2n(C2CCCC2)c1=O [Palbociclib] (partner 0.5 µM)
In short: as §1

[3] = compound: O=c1[nH]cc(F)c(=O)[nH]1 [5-Fluorouracil] + Cc1nc(NC(=O)N2CCC[C@H]2C(N)=O)sc1-c1ccnc(C(C)(C)C(F)(F)F)c1 [Alpelisib] (partner 2 µM)
In short: as §1

[4] = compound: O=c1[nH]cc(F)c(=O)[nH]1 [5-Fluorouracil] + Nc1ncn([C@H]2C[C@H](O)[C@@H](CO)O2)c(=O)n1 [Decitabine] (partner 2 µM)
In short: as §1

Cell Line | relative viability ([1]; first compound 0.005 µM) | relative viability ([1]; first compound 0.01581 µM) | relative viability ([1]; first compound 0.05 µM) | relative viability ([1]; first compound 0.1581 µM) | relative viability ([1]; first compound 0.5 µM) | relative viability ([2]; first compound 0.02 µM) | relative viability ([2]; first compound 0.2 µM) | relative viability ([2]; first compound 0.6325 µM) | relative viability ([2]; first compound 2 µM) | relative viability ([3]; first compound 0.02 µM) | relative viability ([3]; first compound 0.2 µM) | relative viability ([3]; first compound 0.6325 µM) | relative viability ([3]; first compound 2 µM) | relative viability ([4]; first compound 0.02 µM) | relative viability ([4]; first compound 0.2 µM) | relative viability ([4]; first compound 0.6325 µM) | relative viability ([4]; first compound 2 µM)
NCI-H358 | 0.0876 | 0.0765 | 0.0699 | 0.0598 | 0.0619 | 0.157 | 0.146 | 0.15 | 0.177 | 0.935 | 0.817 | 1.04 | 0.434 | 0.187 | 0.224 | 0.214 | 0.225
NCI-H1755 | 0.474 | 0.311 | 0.207 | 0.184 | 0.219 | 0.448 | 0.501 | 0.409 | 0.376 | 0.896 | 0.74 | 0.294 | 0.259 | 0.747 | 0.616 | 0.433 | 0.394
A-427 | 0.171 | 0.113 | 0.1 | 0.104 | 0.0934 | 0.529 | 0.518 | 0.49 | 0.364 | 1.06 | 1.12 | 0.957 |  | 0.526 | 0.603 | 0.544 | 0.479
PC-14 | 0.514 | 0.218 | 0.0637 | 0.0512 | 0.0343 | 0.585 | 0.504 | 0.435 | 0.311 | 1.02 | 0.962 | 0.748 | 0.424 | 0.265 | 0.229 | 0.25 | 0.275
LCLC-97TM1 | 0.277 | 0.139 | 0.181 | 0.199 | 0.221 | 0.221 | 0.228 | 0.215 | 0.157 | 0.205 | 0.224 | 0.208 | 0.161 | 0.242 | 0.269 | 0.207 | 0.201
BEN | 0.587 | 0.743 | 0.484 | 0.434 | 0.325 | 0.443 | 0.433 | 0.472 | 0.449 | 0.987 | 0.873 | 0.657 | 0.692 | 0.743 | 0.743 | 0.746 | 0.681
NCI-H2085 | 0.721 | 0.32 | 0.355 | 0.24 |  | 0.434 | 0.504 | 0.473 | 0.5 | 0.689 | 1.03 | 0.828 | 0.613 | 0.516 | 0.567 | 0.657 | 0.526
LC-2-ad | 0.435 | 0.239 | 0.253 | 0.219 | 0.161 | 0.519 | 0.523 | 0.467 | 0.325 | 0.878 | 0.884 | 0.514 | 0.339 | 0.806 | 0.725 | 0.561 | 0.417
ABC-1 | 0.134 | 0.104 | 0.125 | 0.111 | 0.111 | 0.749 | 0.794 | 0.883 | 0.49 | 1.11 | 1.16 | 0.896 | 0.92 | 1.25 | 0.959 | 0.944 | 0.87
NCI-H661 | 0.392 | 0.445 | 0.401 | 0.335 | 0.238 | 0.407 | 0.436 | 0.425 | 0.419 | 0.598 | 1.12 | 0.597 | 0.612 | 0.574 | 0.596 | 0.495 | 0.551
EPLC-272H | 0.381 | 0.17 | 0.147 | 0.104 | 0.108 | 0.319 | 0.36 | 0.3 | 0.343 | 0.91 | 0.834 | 0.429 | 0.371 | 0.357 | 0.305 | 0.224 | 0.22
NCI-H1437 | 0.402 |  | 0.381 | 0.325 | 0.199 | 0.306 | 0.221 | 0.161 | 0.225 |  | 0.226 | 0.171 | 0.111 | 0.522 | 0.308 | 0.28 | 0.237
EKVX | 0.346 | 0.213 | 0.17 | 0.165 | 0.134 |  | 0.276 |  | 0.175 | 0.7 |  | 0.153 | 0.147 | 0.297 |  |  | 
NCI-H1651 | 0.66 | 0.675 | 0.371 | 0.237 | 0.185 | 0.512 | 0.467 | 0.283 | 0.272 | 1.01 | 0.672 | 0.552 | 0.504 | 0.598 | 0.613 | 0.321 | 0.264
HCC-15 | 0.379 |  | 0.166 | 0.0982 | 0.0697 | 0.499 | 0.744 | 0.52 | 0.302 | 0.921 | 0.836 | 0.494 | 0.29 | 0.751 | 0.711 | 0.63 | 0.476
LCLC-103H | 0.534 | 0.207 | 0.174 | 0.128 | 0.146 | 0.476 | 0.472 | 0.471 | 0.471 | 0.984 | 0.983 | 0.699 | 0.403 | 0.734 | 0.636 | 0.652 | 0.524
NCI-H2347 | 0.514 | 0.357 | 0.196 | 0.268 | 0.219 | 0.455 | 0.381 | 0.395 | 0.326 | 1.09 | 0.709 | 0.457 | 0.447 | 0.587 | 0.618 | 0.441 | 0.407
NCI-H1915 | 0.45 | 0.229 | 0.217 | 0.108 | 0.154 | 0.485 | 0.522 | 0.498 | 0.383 | 1.04 | 1.04 | 0.963 | 0.83 | 0.248 | 0.272 | 0.278 | 0.256
NCI-H650 | 0.451 | 0.238 | 0.278 | 0.193 | 0.181 | 0.316 | 0.278 | 0.244 | 0.263 | 0.915 | 0.644 | 0.523 | 0.397 | 0.313 | 0.312 | 0.326 | 0.288
